Reference: US20120225417A1, “Methods, Compositions and Kits for the Evaluation and Preservation of Sperm” (I'Alliance Boviteq Inc., priority 2011, published 2012)

Experiments:
Type in all cases: biochemical
[1] = test system: 3′-5′ cAMP-PDE activity in bovine spermatozoa; experiment: 3′-5′ cAMP-PDE assay with family-specific PDE inhibitors in bovine spermatozoa; conditions: for Percentage of family specific sensitive PDE activity, 3 h Egg yolk: bovine spermatozoa after 3 h in egg yolk based cryoprotectant at 18° C.; for Percentage of family specific sensitive PDE activity, 3 h Liquid semen: bovine spermatozoa after 3 h in liquid semen extender at 18° C.; for Percentage of family specific sensitive PDE activity, 3 h 4° C.: bovine spermatozoa after 3 h in seminal plasma at 4° C.; for Percentage of family specific sensitive PDE activity, 3 h 18° C.: bovine spermatozoa after 3 h in seminal plasma at 18° C.; for Percentage of family specific sensitive PDE activity, Fresh: bovine spermatozoa rapidly after ejaculation (0 h); for Percentage of total PDE activity sensitive to the inhibitor: cilostamide 10 μM, rolipram 10 μM, papaverine 400 nM (FIG. 12B); for Percentage of sensitive PDE activity, Cryo (B): cryopreserved bovine spermatozoa; for Percentage of sensitive PDE activity, Cryo (B) / Percentage of sensitive PDE activity, Fresh (A): Cil 10 μM, Rol 10 μM, Papa 400 nM; for Percentage of sensitive PDE activity, Fresh (A): freshly ejaculated bovine spermatozoa
Protocol: The semen was obtained from different Holstein bulls. The fresh ejaculated semen was kept in an insulated thermos flask, at 18° C., during transportation to the laboratory and processed within 3 hours after collection. The cryopreserved semen was obtained at the Centre d'Insémination […] du Québec (CIAQ) […]. The cryopreserved straws of semen were prepared according to CIAQ procedures. […] After cutting one end of the straw the semen was collected in a 15 ml falcon while cutting the other end. From this point fresh and cryopreserved semen were processed similarly. Approximately 50 μL of the semen was added to 5 mL of Talp-BSA medium in a 15 mL falcon tube to wash the spermatozoa. After centrifugation (280×g, 10 min, room temperature), the remaining pellet of approximately 100 μL was resuspended in Talp-BSA medium (500 μl for the fresh and 200 μl for two straws) to reach a concentration of 1×10^6 cells/10 μL. The samples were then vortex-agitated for 30 sec and kept on the ice until ready to run the assay. The concentration of sperm cells was measured according to hemacytometer method. The cAMP enzymatic assay (PDE assay) was conducted as previously described ([…]. et al., (2006). […] J. et al., (1979). Adv Cyclic Nucleotide Res 10, 69-92) with minor modifications. […] Measurements were also performed in the presence of PDE inhibitors: […] Cilostamide and Rolipram were purchased from Biomol. […] Each PDE assay was performed in triplicate for each experiment and each experiment was repeated at least three times. As described ([…]. et al., (2009). […] IBMX-sensitive PDE5 and PDE6 and IBMX-insensitive PDE9 activities are absent from these groups because cGMP is the specific substrate and then are not detected in the cAMP-PDE assay. […] J Dairy Sci 92, 3757-3765; […]., et al. (2007). Endocrinology 148, 1858-1867; Siuciak, J. A. et al., (2006). Neuropharmacology 51, 386-396).

[2] = test system: 3′-5′ cAMP-PDE activity in human seminal plasma; experiment: 3′-5′ cAMP-PDE assay with family-specific PDE inhibitors in human seminal plasma; conditions: fresh human seminal plasma; Rolipram 10 μM, Papaverine 400 nM (FIG. 19)
Protocol: A certain amount of complete ejaculate was kept to isolate spermatozoa from seminal plasma. This portion was centrifuged at 400×g during 10 minutes at room temperature to gently pull down spermatozoa. Supernatant was transferred and centrifuged again at 6 000×g at 4° C. during 20 minutes to pull down any remaining spermatozoa. Supernatant was then transferred and centrifuged at 6 000×g at 4° C. during 20 minutes to remove any remaining debris. SP samples were kept on ice until used for PDE assay and stored at -80° C. for further characterization. The cAMP enzymatic assay (PDE assay) was conducted as previously described ([…]. et al., (2006). BMC developmental biology 6, 47). […] J. et al., (1979). Adv Cyclic Nucleotide Res 10, 69-92) with minor modifications. […] Measurements were also performed in the presence of PDE inhibitors: […] Cilostamide and Rolipram were purchased from Biomol. […] Each PDE assay was performed in triplicate for each experiment and each experiment was repeated at least three times. As described ([…]. et al., (2009). […] IBMX-sensitive PDE5 and PDE6 and IBMX-insensitive PDE9 activities are absent from these groups because cGMP is the specific substrate and then are not detected in the cAMP-PDE assay. […] J Dairy Sci 92, 3757-3765; […]., et al. (2007). Endocrinology 148, 1858-1867; Siuciak, J. A. et al., (2006). Neuropharmacology 51, 386-396).

[3] = test system: 3′-5′ cAMP-PDE activity in bovine testis, caput, cauda and seminal vesicles homogenates; experiment: 3′-5′ cAMP-PDE assay in bovine testis, caput, cauda and seminal vesicles homogenates; conditions: Rol 10 μM, Papa 400 nM (FIG. 3)
Protocol: After thoroughly vortex-agitating for about one minute, samples were centrifuged at 10 000×g for 4 minutes at room temperature. Supernatant fluid was collected and diluted in different volumes of hypotonic buffer depending on the tissue. Testis, caput and cauda homogenates were diluted in 1 mL of hypotonic buffer while seminal vesicle homogenates were diluted in 2 mL of hypotonic buffer. Homogenates were kept on ice until subjected to PDE assay. The cAMP enzymatic assay (PDE assay) was conducted as previously described ([…]. et al., (2006). BMC developmental biology 6, 47). […] J. et al., (1979). Adv Cyclic Nucleotide Res 10, 69-92) with minor modifications. […] Measurements were also performed in the presence of PDE inhibitors: […] Cilostamide and Rolipram were purchased from Biomol. […] Each PDE assay was performed in triplicate for each experiment and each experiment was repeated at least three times. As described ([…]. et al., (2009). […] IBMX-sensitive PDE5 and PDE6 and IBMX-insensitive PDE9 activities are absent from these groups because cGMP is the specific substrate and then are not detected in the cAMP-PDE assay. […] J Dairy Sci 92, 3757-3765; […]., et al. (2007). Endocrinology 148, 1858-1867; Siuciak, J. A. et al., (2006). Neuropharmacology 51, 386-396).

[4] = bovine spermatozoa, 1 μM cAMP, IBMX 1 mM

SMILES	Percentage of family specific sensitive PDE activity, 3 h Egg yolk [1] [%]	Percentage of family specific sensitive PDE activity, 3 h Liquid semen [1] [%]	Percentage of family specific sensitive PDE activity, 3 h 4° C. [1] [%]	Percentage of family specific sensitive PDE activity, 3 h 18° C. [1] [%]	Percentage of family specific sensitive PDE activity, Fresh [1] [%]	Percentage of total PDE activity sensitive to the inhibitor [1, 4] [%]	Percentage of sensitive PDE activity, Cryo (B) ([1]; IBMX 1 mM) [%]	Percentage of sensitive PDE activity, Fresh (A) ([1]; IBMX 1 mM) [%]	Percentage of total PDE activity that is IBMX-insensitive (PDE8) [1, 4] [%]	Inhibitor-sensitive PDE activity in human seminal plasma (in words) [2]	Inhibitor-sensitive PDE activity in bovine male reproductive tissues (in words) [3]	Increase of the inhibited proportion of cAMP-PDE activity relative to papaverine ([1]; freshly ejaculated bovine spermatozoa (FIG. 21)) [%]
CN(C(=O)CCCOc1ccc2[nH]c(=O)ccc2c1)C1CCCCC1 [Cilostamide]	24	7	11	20	13	9	5	14				
CC(C)Cn1c(=O)n(C)c(=O)c2[nH]cnc21 [IBMX, 3-isobutyl-1-methylxanthine]	96	96	96	95	95	92	96	94	8			
COc1ccc(C2CNC(=O)C2)cc1OC1CCCC1 (stereo not shown) [Rolipram]	18	11	12	9	11	11	10	12		high	highly functional	
OCCN(CCO)c1nc(N2CCCCC2)c2nc(N(CCO)CCO)nc(N3CCCCC3)c2n1 [dipyridamol, dipyridamole]												10
